Results published in publication PMC1716192, “A Plant-Derived Morphinan as a Novel Lead Compound Active against Malaria Liver Stages” (PLoS Medicine, 2006).
Entries after “also recorded” stand apart in the source; their conditions may differ.

Key:
[1] = system: P. falciparum (NF 54 strain) hepatic stages; experiment: In vitro assay for P. falciparum liver stage inhibition in primary human hepatocytes; type: cell-based; conditions: for IC50 / IC90: 120 h
Method: P. yoelii (265 BY strain) and P. falciparum (NF 54 strain) sporozoites were obtained by dissection of infected Anopheles stephensi salivary glands. Primary mouse hepatocytes were isolated as previously described and seeded in eight-well Lab-Tek plastic chamber slides (VWR, Fontenay-sous-Bois, France) previously coated with rat-tail collagen I (BD Biosciences, Le Pont de Claix, France) at a density of 10^5 cells per well. Mouse hepatocytes were cultured at 37 °C in 5% CO2 in William's E medium supplemented with 10% fetal calf serum, 1% L-glutamine, 1% sodium pyruvate, 1% insulin-transferrin-selenium, 1% nonessential amino acids, and 1% penicillin-streptomycin (all from Invitrogen, Cergy-Pontoise, France), for 24 h before inoculation of P. yoelii sporozoites (10^5 per well). Human liver fragments were collected following informed consent provided from patients undergoing a partial hepatectomy. The collection and use of these tissues were undertaken in accordance with French Government ethical regulations. Primary human hepatocytes were isolated from the healthy parts of these liver biopsies as previously described. Human hepatocytes were seeded in LabTek plastic chamber slides coated with collagen, at a density of 1.8 × 10^5 cells per well and cultured at 37 °C in 5% CO2 in the same medium as above, supplemented with 10^−7 M dexamethasone (Sigma) and 2% DMSO after complete cell adherence (12–24 h), for at least 48 h before inoculation of P. falciparum sporozoites (10^5 per well). For a standard assay, the plant extract, the purified compound, or primaquine was solubilized in DMSO, further diluted in culture medium (equal DMSO concentrations of <0.3% per well), and then added to hepatocyte cultures at the time of sporozoite inoculation. Three hours later, after sporozoite penetration into hepatocytes, cultures were washed and further incubated in the presence of the drug. Culture medium containing the appropriate drug concentration was changed daily until 48 h for P. yoelii, or until 5 d for P. falciparum. Parasites were quantified on the last day of incubation. For the in vitro timing experiments, tazopsine treatment of P. yoelii and P. falciparum cultures was undertaken for different periods during the cultivation: 0 h to 3 h, 3 h to 24 h, or 24 h to 48 h after P. yoelii sporozoite inoculation (quantification at 48 h), or 0 h to 2 d, or 3 d to 5 d after P. falciparum sporozoite inoculation (quantification at 5 d). […] Cells were stained with Evans Blue (0.4%), and parasites and cells nuclei were stained with 1 μg/ml of diamidino-phenylindole (DAPI; Sigma). Parasite numbers were counted under a fluorescence microscope with a 25× light microscope objective. IC50 values, the drug concentration at which a 50% reduction in the number of parasites was observed, as compared to the number in the DMSO control cultures, were derived from two independent experiments in which each concentration was tested in triplicate wells.
(§1) IC50 and TC50 were calculated by nonlinear regression using four-parameter logistic curves on the SigmaPlot 10.0 software (http://www.systat.com). Each IC50 or TC50 is expressed as a mean between two independent experiments, followed by the standard error of the mean.

[2] = system: P. yoelii (265 BY strain) sporozoites; experiment: In vivo assay: P. yoelii sporozoite challenge in mice; set-up: species or system Swiss mice
Method: All animal were kept and used in accordance with institutional guidelines and European regulations. Female 6-wk-old Swiss mice (René Janvier, Le Genest-Saint-Isle, France) weighing 24–31 g were randomly allotted to five groups. The drug to be tested was administered orally. Tazopsine was diluted in sterile water and NCP-tazopsine in sterile water with 10% of Tween 80 (Aldrich, Le Chesnay, France). The drugs were administrated on days −1, 0, +1, +2 (+40 h), and the mice challenged on day 0 by retro-orbital injection of P. yoelii (265 BY strain) sporozoites. Group 1 received 100 mg/kg/day of tazopsine (n = 5), and group 2 received sterile water at the same times (controls, n = 5); groups 1 and 2 were challenged with 4,000 sporozoites. Group 3 received 100 mg/kg/d of NCP-tazopsine (n = 5), group 4 received 200 mg/kg/d of NCP-tazopsine (n = 8), and group 5 received 10% Tween in sterile water (controls, n = 5); groups 3, 4, and 5 were challenged with 10,000 sporozoites. Parasites were enumerated by blinded microscopic examination of Giemsa-stained tail-blood smears collected from day 2 to day 23 postinoculation. A mouse was considered negative when no parasites could be observed in 20,000 red blood cells (50 fields under a 50× light microscope objective) on any day during the period of observation. The results presented were derived from two independent duplicate experiments.

[3] = system: primary human hepatocytes; experiment: In vitro assay for cell viability (neutral red), human hepatocytes; type: cell-based; conditions: 5 d drug exposure
Method: Primary hepatocytes of mice or humans were prepared as above and seeded in 96-well plates coated with collagen, at a density of 5 × 10^4 and 7 × 10^4 cells per well, respectively. Drugs were added to the culture medium, which was changed daily after 24 h or 48 h of incubation for mouse and human hepatocytes, respectively. After 48 h of drug exposure (mouse hepatocytes) or 5 d (human hepatocytes), 50 μl of neutral red (Sigma) at 0.02% in phosphate-buffered saline (PBS) were added per well and incubated for 24 additional hours. Cultures were then washed with PBS and the neutral red extracted with 1% SDS from viable cells and quantified by measuring the OD540 on a microplate autoreader photometer (BioTek Instruments, Winooski, Vermont, United States).
as §1

[4] = Plasmodium falciparum, Hepatocyte
[5] = 100 mg/kg daily for 4 d oral, challenge with 4,000 P. yoelii sporozoites

| SMILES | phase of hepatic development most susceptible to inhibition ([1]; P. falciparum, exposure 0 h-2 d or 3 d-5 d) | concentration at which parasite development fully inhibited ([1]; P. falciparum-infected primary human hepatocyte cultures) [µM] | IC80 [1, 4] [µM] | IC50 [1, 4] [µM] | IC90 [1, 4] [µM] | size of surviving hepatic parasites versus control cultures ([1]; suboptimal inhibitory concentrations, 5 d) | extension of prepatent period over controls (nonprotected mice) ([2]; 100 mg/kg daily for 4 d oral, 4,000 sporozoites) | mice protected from infection [2, 5] [%] | mice that developed a blood stage parasitemia [2, 5] [%] | TC50 [3] | extension of prepatent period over controls (nonprotected mice) ([2]; 100 mg/kg for 4 d oral, 10,000 sporozoites) [days] | mice protected from infection ([2]; 100 mg/kg for 4 d oral, challenge with 10,000 P. yoelii sporozoites) [%] | mice developing a blood stage infection / protection after sporozoite challenge ([2]; 200 mg/kg daily over 4 d oral, challenge with 10,000 P. yoelii sporozoites) |
| --- | --- | --- | --- | --- | --- | --- | --- | --- | --- | --- | --- | --- | --- |
| COC1=C2[C@H]3NCC[C@]2(C[C@H](O)[C@@H]1O)c1c(ccc(OC)c1O)[C@H]3O [Tazopsine, tazopsine] | most susceptible to inhibition during the early stage of trophozoite development | ≥ 28 | 10 | 4.2 ± 0.1 | 18.3 ± 2.8 | significantly smaller | about 4 d | 70 | 30 | 28.4 ± 4.3 µM | – | – | – |
| COC1=C2[C@@H]3[C@H](O)c4ccc(OC)c(O)c4[C@]2(CCN3C2CCCC2)C[C@H](O)[C@@H]1O [NCP-tazopsine, N-cyclopentyl-tazopsine] | – | – | – | 42.4 | 95.4 ± 6.6 | – | – | – | – | 2,549.6 ± 307.6 μM | 2 | 60 | completely protected; also recorded: none of the mice developed a blood stage infection; also recorded: fully protected |
